Laboratory results reported in US20250032468A1, “OCULAR SURFACE TOPICAL ADMINISTRATION OF ROFLUMILAST FOR TREATMENT OF ANTERIOR AND RETINAL-VITREOUS CHAMBER OCULAR DISEASES” (IOLYX THERAPEUTICS, INC., priority 2023, published 2025).
Where two headings read alike, the source gives them in different places.

Columns and labels:
[1] = Ocular tissue concentration of roflumilast after 5 days topical ocular dosing (Example 8, Table 7); type: in vivo, Dutch belted rabbits
Description: Two unique animal studies were conducted to assess the concentration of roflumilast in various tissues following administration of different concentrations of Example 3. The concentration in various tissues was assessed following five days of administration of the following dosing regimens: (a) 1% w/v roflumilast three times a day (TID); (b) 0.3% w/v roflumilast three times a day (TID); or (c) 0.1% w/v roflumilast two times a day (BID). In one study encompassing (a) and (b), n=6 Dutch belted rabbits per dose arm were dosed topically three times per day according to arm on days 1 to 4, and on day 5, a single dose was given at hour 0. In a different study with the same methodologies and practices, n=21 Dutch belted rabbits represented in group (c) were dosed two times per day on days 1 to 4, and on day 5, a single dose was given at hour 0. […] In the original study conducted solely with arm (c), a dose curve was created using time points at 0.5, 2, 4, 8, and 24 hours. To reduce the number of animals in the second experiment, for group (a) and (b), only 0.5 and 8 hours were tested. FIG. 1 provides data for the concentration of roflumilast (ng/g) in the iris ciliary body (ICB) as a function of time following: (a) 1% w/v roflumilast administered three times a day; (b) 0.3% w/v roflumilast administered three times a day; or (c) 0.1% w/v roflumilast administered two times a day. FIG. 2 provides data for the concentration of roflumilast (ng/g) in the aqueous humor (AH) as a function of time following: (a) 1% w/v roflumilast administered three times a day; (b) 0.3% w/v roflumilast administered three times a day; or (c) 0.1% w/v roflumilast administered two times a day. FIG. 3 provides data for the concentration of roflumilast (ng/g) in the retina/choroid/retina pigment epithelium (RPE) as a function of time following: (a) 1% w/v roflumilast administered three times a day; (b) 0.3% w/v roflumilast administered three times a day; or (c) 0.1% w/v roflumilast administered two times a day. […] (Claveau, 2004) This ratio is shown at both 0.5 hours, closest to a Cmax time point, and 8 hrs, which would be a time point close to a redosing time point for a TID dosing.

[2] = tested on: PDE4 A, B, D; settings: also printed as 0.07 ng/g; cited from earlier work
[3] = Saturation concentration of roflumilast in the suspension formulation; type: physicochemical; settings: formulation characteristic used in the simulation
Description: Computational modeling of topical ophthalmic roflumilast dosing was carried out using an ocular simulation computer program based on Matlab® (Mathworks, Natick, MA) programming language using a runtime Java® applet for a graphical user-friendly interface. Physiological and anatomic parameters for the ocular simulation were customized to model the pigmented rabbit eye, by entering appropriate volumes of distribution and surface areas of anterior and posterior compartment tissues. […] Based on these parameters, theoretical calculations were carried out for all simulations, while for matching concentrations with actual experimental data the model was used for comparison, fitting, and optimization.

[4] = dog, in vivo
Description: (§1) In the study, male and female dogs (n=3M/3F per arm to week 13, 2M/2F to additional 4 week recovery) received 13 weeks of topical treatment, three times a day, followed by a four week recovery period, in four dose arms, 0%, 0.1%, 0.3%, and 1% concentration of roflumilast. In addition to regular safety and well-being checks, animals were given regular ophthalmic exams, measurement of weight, tonometry to test intraocular pressure, pachymetery to test corneal thickness, clinical chemistry and hematological evaluation, and other routine checks of health and well-being. At the point of study termination, ocular tissues and major organs were tested for macro- and microscopic observation.

[5] = rabbit, in vivo
Description: (§2) A study was conducted to evaluate toxicity outcomes of repeated topical ocular administration of roflumilast. Male and female New Zealand white rabbits (n=7 per group) were administered: (a) vehicle-based placebo three times a day; (b) a 0.1% w/v roflumilast formulation (Example 3) three times a day; (c) a 0.3% w/v roflumilast formulation (Example 3) three times a day; or (d) a 1.0% w/v roflumilast formulation (Example 3) three times a day. In the study, male and female New Zealand White rabbits received 13 weeks of topical treatment, three times a day, followed by a four-week recovery period, in four dose arms, 0%, 0.1%, 0.3%, and 1% concentration of roflumilast. In addition to regular safety and well-being checks, animals were given regular ophthalmic exams, measurement of weight, tonometry to test intraocular pressure, clinical chemistry and hematological evaluation, and other routine checks of health and well being. At the point of study termination, ocular tissues and major organs were tested for macro- and microscopic observation. […] Parameters evaluated included body weight, intraocular pressure (IOP), and central corneal thickness (CCT).

[6] = 13-week repeated topical ocular administration study in dogs (Example 10)
Description: as §1

[7] = Ocular pigment binding, equilibrium sepia melanin association (Covance, method by Koeberle et al.); type: in vitro ADME
[8] = 13-week repeated topical ocular administration toxicity study in rabbits (Example 11); settings: for intraocular pressure: FIG. 15
Description: as §2

Q: Which results are given for `O=C(Nc1c(Cl)cncc1Cl)c1ccc(OC(F)F)c(OCC2CC2)c1` [Roflumilast, N-(3,5-dichloropyrid-4-yl)-3-cyclopropylmethoxy-4-difluoromethoxybenzamide]?
A: Ratio of Roflumilast Concentration to PDE4 IC50 ([1]; AH, 0.10% BID days 1-4, single dose day 5, 0.5 hrs post dose): 53×; Ratio of Roflumilast Concentration to PDE4 IC50 ([1]; AH, 0.10% BID days 1-4, single dose day 5, 8 hrs post dose): 0×; Ratio of Roflumilast Concentration to PDE4 IC50 ([1]; AH, 0.30% TID days 1-4, single dose day 5, 0.5 hrs post dose): 143×; Ratio of Roflumilast Concentration to PDE4 IC50 ([1]; AH, 0.30% TID days 1-4, single dose day 5, 8 hrs post dose): 4×; Ratio of Roflumilast Concentration to PDE4 IC50 ([1]; AH, 1.00% TID days 1-4, single dose day 5, 0.5 hrs post dose): 476×; Ratio of Roflumilast Concentration to PDE4 IC50 ([1]; AH, 1.00% TID days 1-4, single dose day 5, 8 hrs post dose): 10×; Ratio of Roflumilast Concentration to PDE4 IC50 ([1]; Cornea, 0.10% BID days 1-4, single dose day 5, 0.5 hrs post dose): 2286×; Ratio of Roflumilast Concentration to PDE4 IC50 ([1]; Cornea, 0.10% BID days 1-4, single dose day 5, 8 hrs post dose): 509×; tissue levels relative to the IC50 level ([1]; ICB, AH, and retina/choroid/RPE, 0.3% and 1% TID): strong elevation in tissue levels above the IC50 level; Ratio of Roflumilast Concentration to PDE4 IC50 ([1]; ICB, 0.10% BID days 1-4, single dose day 5, 0.5 hrs post dose): 66×; Ratio of Roflumilast Concentration to PDE4 IC50 ([1]; ICB, 0.10% BID days 1-4, single dose day 5, 8 hrs post dose): 2×; Ratio of Roflumilast Concentration to PDE4 IC50 ([1]; ICB, 0.30% TID days 1-4, single dose day 5, 0.5 hrs post dose): 247×; Ratio of Roflumilast Concentration to PDE4 IC50 ([1]; ICB, 0.30% TID days 1-4, single dose day 5, 8 hrs post dose): 9×; Ratio of Roflumilast Concentration to PDE4 IC50 ([1]; ICB, 1.00% TID days 1-4, single dose day 5, 0.5 hrs post dose): 534×; Ratio of Roflumilast Concentration to PDE4 IC50 ([1]; ICB, 1.00% TID days 1-4, single dose day 5, 8 hrs post dose): 22×; Ratio of Roflumilast Concentration to PDE4 IC50 ([1]; RET/CHOR, 0.10% BID days 1-4, single dose day 5, 0.5 hrs post dose): 15×; Ratio of Roflumilast Concentration to PDE4 IC50 ([1]; RET/CHOR, 0.10% BID days 1-4, single dose day 5, 8 hrs post dose): 5×; Ratio of Roflumilast Concentration to PDE4 IC50 ([1]; RET/CHOR, 0.30% TID days 1-4, single dose day 5, 0.5 hrs post dose): 91×; Ratio of Roflumilast Concentration to PDE4 IC50 ([1]; RET/CHOR, 0.30% TID days 1-4, single dose day 5, 8 hrs post dose): 14×; Ratio of Roflumilast Concentration to PDE4 IC50 ([1]; RET/CHOR, 1.00% TID days 1-4, single dose day 5, 0.5 hrs post dose): 167×; Ratio of Roflumilast Concentration to PDE4 IC50 ([1]; RET/CHOR, 1.00% TID days 1-4, single dose day 5, 8 hrs post dose): 52×; duration of terminal level therapeutic concentrations covering the relevant IC50 ([1]; cornea, 0.1% BID four days plus single dose day 5, FIG. 5): ~24 h; IC50 of t-cells for the PDE4 A, B, D targets [2]: 0.07 ng/mL; saturation concentration [3]: 6 µg/mL; tolerability [4]: well tolerated at all concentrations; tolerability [5]: well tolerated at all concentrations; major clinical or pathological findings in life or post-mortem ([6]; 0.1%, 0.3%, 1% TID topical ocular, 13 weeks plus 4 week recovery): no major test article related findings; systemic adverse effect on the eye or other organs (ophthalmic and other exams) ([6]; 0.1%, 0.3%, 1.0% w/v TID): little to no systemic adverse effect; body weight ([6]; all concentrations TID, compared to vehicle-based placebo, FIG. 11): did not lose weight; central corneal thickness ([6]; all treatment groups over the duration of the study, FIG. 13): substantially consistent for all treatment groups; intraocular pressure ([6]; all treatment groups, only transient changes seen sporadically, FIG. 12): substantially the same for all treatment groups; ocular pigment binding [7]: medium to high; major clinical or pathological findings in life or post-mortem ([8]; New Zealand White rabbits, 0.1%, 0.3%, 1% TID topical ocular, 13 weeks plus four-week recovery): no major test article related findings; intraocular pressure ([8]; rabbits, 0.1% w/v TID, day 28, only transiently, still within a normal range): higher; systemic adverse effect on the eye or other organs (ophthalmic and other exams) ([8]; rabbits, 0.1%, 0.3%, 1.0% w/v TID): little to no systemic adverse effect; body weight ([8]; rabbits, all concentrations TID, compared to vehicle-based placebo, FIG. 14): did not lose weight; central corneal thickness ([8]; rabbits, all treatment groups, FIG. 16): substantially the same for all treatment groups; intraocular pressure ([8]; rabbits, all treatment groups, remaining days): substantially the same for all treatment groups
